Some test systems named below: OVCAR-3; UO-31; SF-295; OVCAR-5; CAKI-1; MDA-N; MOLT-4; HCT-15; MCF7; HT-29; KM12; HCT-116; HOP-92; EKVX; NCI-H460; SK-MEL-2; Malme-3M; UACC-62; UACC-257.
Assay in all cases: growth of human tumour cells (NCI), 48 h

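Following 48 hours of exposure in 96-well plates, responses at five concentrations were used to interpolate endpoints linearly. The concentration for 50% growth inhibition is given as GI50.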 The source made the active and inactive calls. Cut-off read from the data, not from the text of the source: active = GI50 up to about 1.1 µM and inactive = higher.

As for `O=C(O/N=c1/ccc(=O)/c(=N\OC(=O)c2ccccc2)c1=O)c1ccccc1`, the GI50 with OVCAR-3, in the experiment on UO-31, in the experiment with SF-295, with OVCAR-5, with CAKI-1 and with MDA-N was > 100 µM (inactive) each time. In addition, the GI50 in the experiment on MOLT-4 was 40.2 µM (inactive); in the experiment on HCT-15 it was greater than 100 µM; in the experiment on MCF7, 1.81 µM (inactive); with HT-29, > 100 µM (inactive); with KM12 it was > 100 µM (inactive); in the experiment with HCT-116 it was > 100 µM (inactive). Further, the GI50 in the experiment on HOP-92, in the experiment with EKVX and with NCI-H460 was > 100 µM (inactive) each time.
As for `Cc1c(CN2CCOCC2)c(CN2CCOCC2)c(C)n1-c1ccc(Cl)cn1`, the GI50 in the experiment with SK-MEL-2, with OVCAR-3, in the experiment on UO-31, in the experiment with SF-295, in the experiment on OVCAR-5 and in the experiment on CAKI-1 was > 100 µM (inactive) in each case. The GI50 in the experiment with MDA-N is > 100 µM (inactive); in the experiment on MOLT-4 it was > 100 µM (inactive); with Malme-3M, > 100 µM (inactive); in the experiment with HCT-15 it was greater than 100 µM; in the experiment on MCF7, > 100 µM (inactive); in the experiment with HT-29, > 100 µM (inactive). Also, the GI50 in the experiment on KM12, in the experiment with UACC-62, in the experiment on HCT-116, with EKVX, in the experiment on NCI-H460 and in the experiment with UACC-257 was > 100 µM (inactive) each time.
Take `Cn1c2ccccc2c(=O)c2cccc(C(=O)NC(CS)C(=O)O)c21` (configuration not stated): the GI50 with SK-MEL-2 was > 100 µM (inactive); with OVCAR-3, > 100 µM (inactive); in the experiment on UO-31, > 100 µM (inactive); with SF-295, > 100 µM (inactive); with OVCAR-5, > 100 µM (inactive); in the experiment with CAKI-1, 32.8 µM (inactive). Also, the GI50 is > 100 µM (inactive) in the experiment on MDA-N; 63.4 µM (inactive) in the experiment on MOLT-4; > 100 µM (inactive) in the experiment on Malme-3M; greater than 100 µM in the experiment with HCT-15; 40.9 µM (inactive) in the experiment with MCF7; > 100 µM (inactive) with HT-29. Further, the GI50 is > 100 µM (inactive) in the experiment with KM12; > 100 µM (inactive) with UACC-62; 68.9 µM (inactive) in the experiment on HCT-116; > 100 µM (inactive) with EKVX; > 100 µM (inactive) with NCI-H460; > 100 µM (inactive) in the experiment with UACC-257.
Take `Cc1ccc(S(=O)(=O)N2CCCC2C(=O)O[C@H]2CC[C@H]3CC=C[C@H]32)cc1` (some centres not stated): the GI50 is > 10 µM (inactive) with SK-MEL-2; > 100 µM (inactive) with OVCAR-3; 29.9 µM (inactive) in the experiment on UO-31; 23.7 µM (inactive) in the experiment on SF-295; > 100 µM (inactive) in the experiment with OVCAR-5; > 100 µM (inactive) with CAKI-1. Also, the GI50 in the experiment with MDA-N is > 69.8 µM (inactive); in the experiment with MOLT-4 it was 7.89 µM (inactive); with Malme-3M, 47.1 µM (inactive); in the experiment on HCT-15, greater than 10 µM; in the experiment on MCF7 it was 26.4 µM (inactive); with HT-29 it was 40.3 µM (inactive). In addition, the GI50 is > 100 µM (inactive) with KM12; 97.3 µM (inactive) in the experiment with UACC-62; 19.1 µM (inactive) in the experiment with HCT-116; 65.6 µM (inactive) in the experiment on EKVX; 27 µM (inactive) in the experiment on NCI-H460; 23.8 µM (inactive) with UACC-257.
Turning to `CCN1C(=O)C(C)S/C1=N\NC(=O)CSc1nc2ccccc2c(=O)n1CC` (configuration not stated), the GI50 in the experiment with SK-MEL-2 was > 100 µM (inactive); with OVCAR-3, > 100 µM (inactive); in the experiment on UO-31, 72.9 µM (inactive); in the experiment with SF-295 it was > 100 µM (inactive); with OVCAR-5 it was > 100 µM (inactive); with CAKI-1, > 100 µM (inactive). Further, the GI50 with MDA-N is > 100 µM (inactive); in the experiment with MOLT-4, > 100 µM (inactive); in the experiment on Malme-3M it was > 100 µM (inactive); in the experiment with HCT-15, greater than 100 µM; in the experiment with MCF7, > 100 µM (inactive); with KM12, > 100 µM (inactive). For the same compound, the GI50 with UACC-62 was > 100 µM (inactive); in the experiment on HCT-116, > 100 µM (inactive); in the experiment with EKVX, > 100 µM (inactive); with NCI-H460, 3.12 µM (inactive); in the experiment on UACC-257, > 100 µM (inactive).
On to `Oc1ccc(-c2nc3cc(C(F)(F)F)ccc3n2CC2CCCN3CCCCC23)cc1` (configuration not stated), for which the GI50 in the experiment with SK-MEL-2 is 14.7 µM (inactive); in the experiment with OVCAR-3 it was 13 µM (inactive); in the experiment with UO-31, 11.7 µM (inactive); in the experiment with SF-295, 13.4 µM (inactive); in the experiment on OVCAR-5, 13.8 µM (inactive); with CAKI-1, 18 µM (inactive). Besides, the GI50 in the experiment on MDA-N is 16.2 µM (inactive); with MOLT-4, 15 µM (inactive); in the experiment on HCT-15, 16.1 µM; with MCF7 it was 12.6 µM (inactive); in the experiment with HT-29 it was 13.4 µM (inactive); with KM12, 15.3 µM (inactive). The GI50 with HCT-116 is 15.7 µM (inactive); with HOP-92, 14.9 µM (inactive); in the experiment on EKVX, 14.8 µM (inactive); with NCI-H460, 15.1 µM (inactive); in the experiment with UACC-257, 16.3 µM (inactive).
With `O=C1/C(=C/c2ccccc2[N+](=O)[O-])N=C(c2ccccc2)N1C1Nc2cc3c(cc2S1)NC(N1C(=O)/C(=C/c2ccccc2[N+](=O)[O-])N=C1c1ccccc1)S3` (configuration not stated), the GI50 with SK-MEL-2 is 36.8 µM (inactive); with OVCAR-3, 37.2 µM (inactive); in the experiment with UO-31 it was 24.1 µM (inactive); in the experiment on SF-295, 63.8 µM (inactive); in the experiment with OVCAR-5 it was > 100 µM (inactive); with CAKI-1, 39.7 µM (inactive). The GI50 with MDA-N was 36.8 µM (inactive); in the experiment on MOLT-4, 19.3 µM (inactive); in the experiment on HCT-15, 32.8 µM; in the experiment with MCF7, 18.7 µM (inactive); with HT-29, 36.2 µM (inactive); in the experiment on KM12 it was 52.4 µM (inactive). Further, the GI50 was 16 µM (inactive) in the experiment on HCT-116; > 100 µM (inactive) with HOP-92; 27.7 µM (inactive) in the experiment with EKVX; 5.45 µM (inactive) in the experiment with NCI-H460; 91 µM (inactive) in the experiment on UACC-257.
With `CC[C@H]1OC([C@H](O)C/C=C\C#C[Si](C)(C)C)C/C=C\C[C@H]1O[Si](C)(C)C(C)(C)C` (some centres not stated), the GI50 in the experiment with SK-MEL-2 is > 100 µM (inactive); in the experiment with OVCAR-3 it was > 100 µM (inactive); in the experiment with UO-31 it was 54.5 µM (inactive); in the experiment with SF-295, > 100 µM (inactive); in the experiment with OVCAR-5, > 100 µM (inactive); in the experiment with CAKI-1, > 100 µM (inactive). Besides, the GI50 in the experiment on MDA-N is > 100 µM (inactive); in the experiment on MOLT-4, > 100 µM (inactive); with Malme-3M it was > 100 µM (inactive); in the experiment with HCT-15, greater than 100 µM; in the experiment on MCF7 it was 51.4 µM (inactive); in the experiment on HT-29 it was > 100 µM (inactive). Besides, the GI50 with KM12, in the experiment on UACC-62, in the experiment with HCT-116, in the experiment on EKVX and with NCI-H460 was > 100 µM (inactive) in each case.

For the origin of these results see ChEMBL document CHEMBL1201862, “PubChem BioAssay data set” (2004).
